From paper PMC11542186, “Pin1 WW Domain Ligand Library Synthesized with an Easy Solid-Phase Phosphorylating Reagent” (Biochemistry, 2024)
Where a SMILES comes first, the peptide text is derived from it. [ ]: non-standard residue; d: D form. The star is where a group is joined. pS = N[CH](COP(=O)(O)O)C(=O)O; Agmatine = N=C(N)NCCCCN*; Morpholide = C1CN(*)CCO1; Piperidide = C1CCN(*)CC1; Pyrrolidide = C1CCN(*)C1

molecular target: T1, Pin1 WW domain (Pin1–HRP) (Homo sapiens, UniProt Q13526); experiment: ELEBA primary screening assay of the library; type: binding; conditions: separate plate of groups A and B (L2 control 85.0443); crude library members; DMSO = 100%; mean of N = 2
T1 construct: purchased R&D Systems
Experimental: The library was screened by the ELEBA we reported previously.[44] The crude products resulting from diethyl ether precipitation were used for the primary and secondary ELEBA without additional purification. The concentrations of the crude products were estimated based on quantitative yields; actual concentrations were thus lower, depending on yield and purity. The library products were dissolved in DMSO as stock solutions for assays. […] Recombinant human Pin1 conjugated to horseradish peroxidase (Pin1–HRP) was used in the binding assays.[44] Fmoc-VPRpTPVGGGK-NH2 L2 was used as the positive control and DMSO was used as the negative control on each plate. The percent of Pin1–HRP bound to the plate was calculated by normalizing the binding with DMSO to be 100%. In the primary assays (Figure S1), 14 of the best library members were identified: 1{2,d}, 1{18,f}, 1{20,f}, 1{10, l}, 1{13, l}, 1{18, l}, 1{20, l}, 1{10, n}, 1{18, n}, 1{19, n}, 1{2, n}, 1{20, n}, 1{14, o}, 1{3, o}. In the secondary assay, these ligands were measured again at 270 μM, and three hits, 1{2, d}, 1{18, l} and 1{2, n}, were chosen for further analysis (Figure 3).
The Pin1 WW domain ligand, Fmoc–VPRpTPVGGGK–NH2, (100 μL/well, 245 μM stock solution) was covalently attached to a 96-well plate through the ε-amino group of the Lys side chain at pH 11.0, as published.[44] Ligands were dissolved in DMSO at stock concentrations of ca. 50 mM by weight. Competitive binding with plate-linked Fmoc–VPRpTPVGGGK–NH2L1 of pSer–Pro dipeptides was measured at ca. 600 μM for primary screening. In the primary assays, all library members were screened with the crude products. 1{1-21, d} were measured as mixtures of cis- and trans-isomers. Library members synthesized from racemic reagents, such as 1{1-21, c}, 1{1-21, l}, 1{1-21, q}, 1{3, a-q} and 1{8, a-q} were measured as diastereomeric mixtures. The library members were dissolved in DMSO as stock solutions with a concentration of about 37 mM based on estimated yields. The DMSO stock solution of each compound (4 μL) was added into a solution of recombinant Pin1–HRP (R&D Systems) in a PBS buffer with 2% BSA (pH = 7.3). DMSO (4 μL) was used as a negative control. The final volume of the solution was 250 μL, the final concentration of Pin1–HRP was 200 pM, and the estimated final compound concentration was 590 μM. The resulting solution was preincubated for 30 min at ambient temperature, and was added into two wells (100 μL each, for assay in duplicate) of the ligand-linked plate. The solutions were incubated for another 1 h. The solutions were removed by inverting and shaking the plate, and the plate was washed with buffer ([…], and 0.05% Tween 20 in PBS at pH 7.3) three times. A 1:1 solution of hydrogen peroxide and 3,3,5,5′-tetramethylbenzidine (100 μL) was added into each plate well, and incubated in the dark for 20 min. A 2N H2SO4 solution (50 μL) was added to each well to quench the reaction, and the absorbance of was determined at 450 nm. The percentage of Pin1–HRP bound to the plate (% binding) was calculated by eq 1. To calculate the absorbance of a plate well in eq 1, the blank ligand-linked plate was predetermined at the same wavelength, and the absorbance of the blank well was subtracted from the absorbance of the same well containing the final solution. [drawing 2] 1 […]
The Fmoc-Ser(2- […]
cyanoethylphosphate)-OH product was cleaved from the resin with TFA. 1H NMR indicated the presence of the Fmoc group, implying that the substrate was successfully attached to the resin (data not shown). To develop the coupling methods, 2-(2-naphthyl)ethylamine and propionic acid were reacted with the pSer–Pro resin. The resulting propanoyl-pSer–Pro–(2-(2-naphthyl)ethyl)-amide (1H NMR below) was excluded from the library assays.
Figure S1 (following pages). Ligands (group A – O) were screening using ELEBA at ca. 266 µM.
Fmoc-VPRpTPVGGGK-NH2 L2 was used as positive control at 76-87 µM from stock solutions […]
of 4.3-4.8 mM. […]

T1 sequence (Q13526 whole entry, the tested form may be a part): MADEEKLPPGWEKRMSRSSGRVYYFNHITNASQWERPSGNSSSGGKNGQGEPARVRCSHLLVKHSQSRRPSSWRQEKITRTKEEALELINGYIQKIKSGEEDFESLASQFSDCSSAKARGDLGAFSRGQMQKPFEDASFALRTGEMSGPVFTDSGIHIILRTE

Row | SMILES | % of Pin1-HRP bound to plate-linked ligand
1 | CC(=O)NC(COP(=O)(O)O)C(=O)N1CCCC1C(=O)N(C)CC(C)c1ccccc1 (mixture of isomers) [1{3,a}] | 118.382%
2 | CC(CN(C)C(=O)C1CCCN1C(=O)C(COP(=O)(O)O)NC(=O)C=Cc1c[nH]cn1)c1ccccc1 (mixture of isomers) [1{3,b}] | 124.358%
3 | CC(=O)NC(COP(=O)(O)O)C(=O)N1CCCC1C(=O)NCCCN1CCCCC1C (mixture of isomers) [1{8,a}] | 108.888%
4 | CC1CCCCN1CCCNC(=O)C1CCCN1C(=O)C(COP(=O)(O)O)NC(=O)C=Cc1c[nH]cn1 (mixture of isomers) [1{8,b}] | 102.481%
5 | CC(=O)NC(COP(=O)(O)O)C(=O)N1CCCC1C(=O)N1CCCC1 (centres unmarked) [1{1,a}] (Ac-[pS]-Pro-Pyrrolidide; configuration not given here) | 111.106%
6 | O=C(C=Cc1c[nH]cn1)NC(COP(=O)(O)O)C(=O)N1CCCC1C(=O)N1CCCC1 (centres unmarked) [1{1,b}] | 117.035%
7 | CC(=O)N[C@@H](COP(=O)(O)O)C(=O)N1CCC[C@H]1C(=O)Nc1ccc2[nH]ncc2c1 [1{2,a}] | 115.042%
8 | O=C(C=Cc1c[nH]cn1)NC(COP(=O)(O)O)C(=O)N1CCCC1C(=O)Nc1ccc2[nH]ncc2c1 (centres unmarked) [1{2,b}] | 113.209%
9 | CC(=O)NC(COP(=O)(O)O)C(=O)N1CCCC1C(=O)NCCc1ccc(O)cc1 (centres unmarked) [1{4,a}] | 120.879%
10 | O=C(C=Cc1c[nH]cn1)NC(COP(=O)(O)O)C(=O)N1CCCC1C(=O)NCCc1ccc(O)cc1 (centres unmarked) [1{4,b}] | 124.444%
11 | CC(=O)N[C@@H](COP(=O)(O)O)C(=O)N1CCC[C@H]1C(=O)N(C)CCc1ccccn1 [1{5,a}] | 108.292%
12 | CN(CCc1ccccn1)C(=O)C1CCCN1C(=O)C(COP(=O)(O)O)NC(=O)C=Cc1c[nH]cn1 (centres unmarked) [1{5,b}] | 113.92%
13 | COC(=O)C=C(C)NC(=O)[C@@H]1CCCN1C(=O)[C@H](COP(=O)(O)O)NC(C)=O [1{6,a}] | 116.564%
14 | COC(=O)C=C(C)NC(=O)C1CCCN1C(=O)C(COP(=O)(O)O)NC(=O)C=Cc1c[nH]cn1 (centres unmarked) [1{6,b}] | 111.464%
15 | CCN(CC)CCCCN(C)C(=O)[C@@H]1CCCN1C(=O)[C@H](COP(=O)(O)O)NC(C)=O [1{7,a}] | 99.5048%
16 | CCN(CC)CCCCN(C)C(=O)[C@@H]1CCCN1C(=O)[C@H](COP(=O)(O)O)NC(=O)/C=C/c1c[nH]cn1 [1{7,b}] | 108.279%
17 | CC(=O)NC(COP(=O)(O)O)C(=O)N1CCCC1C(=O)NCCc1c[nH]cn1 (centres unmarked) [1{9,a}] | 109.367%
18 | O=C(C=Cc1c[nH]cn1)NC(COP(=O)(O)O)C(=O)N1CCCC1C(=O)NCCc1c[nH]cn1 (centres unmarked) [1{9,b}] | 117.354%
19 | CC(=O)N[C@@H](COP(=O)(O)O)C(=O)N1CCC[C@H]1C(=O)N1CCN(c2ncccn2)CC1 [1{10,a}] | 102.123%
20 | O=C(C=Cc1c[nH]cn1)NC(COP(=O)(O)O)C(=O)N1CCCC1C(=O)N1CCN(c2ncccn2)CC1 (centres unmarked) [1{10,b}] | 93.9893%
21 | CC(=O)N[C@@H](COP(=O)(O)O)C(=O)N1CCC[C@H]1C(=O)NCCCCCCN [1{11,a}] | 74.9059%
22 | NCCCCCCNC(=O)[C@@H]1CCCN1C(=O)[C@H](COP(=O)(O)O)NC(=O)/C=C/c1c[nH]cn1 [1{11,b}] | 79.8617%
23 | CC(=O)NC(COP(=O)(O)O)C(=O)N1CCCC1C(=O)NCCCn1ccnc1 (centres unmarked) [1{12,a}] | 109.194%
24 | O=C(C=Cc1c[nH]cn1)NC(COP(=O)(O)O)C(=O)N1CCCC1C(=O)NCCCn1ccnc1 (centres unmarked) [1{12,b}] | 94.4757%
25 | CC(=O)NC(COP(=O)(O)O)C(=O)N1CCCC1C(=O)N1CCC(N2CCCCC2)CC1 (centres unmarked) [1{13,a}] | 109.315%
26 | O=C(/C=C/c1c[nH]cn1)N[C@@H](COP(=O)(O)O)C(=O)N1CCC[C@H]1C(=O)N1CCC(N2CCCCC2)CC1 [1{13,b}] | 96.4764%
27 | CC(=O)N[C@@H](COP(=O)(O)O)C(=O)N1CCC[C@H]1C(=O)NCCc1c[nH]c2ccccc12 [1{14,a}] | 120.534%
28 | O=C(C=Cc1c[nH]cn1)NC(COP(=O)(O)O)C(=O)N1CCCC1C(=O)NCCc1c[nH]c2ccccc12 (centres unmarked) [1{14,b}] | 109.953%

Results, then the compound that gave them:

Row | % of Pin1-HRP bound to plate-linked ligand | SMILES
29 | 110.698% | CC(=O)N[C@@H](COP(=O)(O)O)C(=O)N1CCC[C@H]1C(=O)NC1CCN(Cc2ccccc2)CC1 [1{15,a}]
30 | 98.3254% | O=C(C=Cc1c[nH]cn1)NC(COP(=O)(O)O)C(=O)N1CCCC1C(=O)NC1CCN(Cc2ccccc2)CC1 (centres unmarked) [1{15,b}]
31 | 112.945% | CC(=O)NC(COP(=O)(O)O)C(=O)N1CCCC1C(=O)NCCCCNC(=N)N (centres unmarked) [1{16,a}] (Ac-[pS]-Pro-Agmatine; configuration not given here)
32 | 94.5777% | N=C(N)NCCCCNC(=O)[C@@H]1CCCN1C(=O)[C@H](COP(=O)(O)O)NC(=O)/C=C/c1c[nH]cn1 [1{16,b}]
33 | 117.069% | CC(=O)NC(COP(=O)(O)O)C(=O)N1CCCC1C(=O)NCCCN1CCOCC1 (centres unmarked) [1{17,a}]
34 | 94.8602% | O=C(/C=C/c1c[nH]cn1)N[C@@H](COP(=O)(O)O)C(=O)N1CCC[C@H]1C(=O)NCCCN1CCOCC1 [1{17,b}]
35 | 102.518% | CC(=O)N[C@@H](COP(=O)(O)O)C(=O)N1CCC[C@H]1C(=O)NNC(=O)c1ccco1 [1{18,a}]
36 | 87.6813% | O=C(/C=C/c1c[nH]cn1)N[C@@H](COP(=O)(O)O)C(=O)N1CCC[C@H]1C(=O)NNC(=O)c1ccco1 [1{18,b}]
37 | 116.14% | CC(=O)N[C@@H](COP(=O)(O)O)C(=O)N1CCC[C@H]1C(=O)N1CCCCC1 [1{19,a}] (Ac-[pS]-Pro-Piperidide)
38 | 97.5722% | O=C(C=Cc1c[nH]cn1)NC(COP(=O)(O)O)C(=O)N1CCCC1C(=O)N1CCCCC1 (centres unmarked) [1{19,b}]
39 | 115.484% | CC(=O)N[C@@H](COP(=O)(O)O)C(=O)N1CCC[C@H]1C(=O)N1CCOCC1 [1{20,a}] (Ac-[pS]-Pro-Morpholide)
40 | 113.792% | CC(=O)NC(COP(=O)(O)O)C(=O)N1CCCC1C(=O)NCCc1ccc2ccccc2c1 (centres unmarked) [1{21,a}]
41 | 77.3223% | O=C(C=Cc1c[nH]cn1)NC(COP(=O)(O)O)C(=O)N1CCCC1C(=O)NCCc1ccc2ccccc2c1 (centres unmarked) [1{21,b}]
